One test relates to T. gondii. Briefly: Anti-toxoplasma screening, luciferase-expressing T. gondii (TgLuc+) in HFF cells, luminescence. In kind it is cell-based. Conditions: for inhibition at 10 µM: 48 h, primary screen, TgLuc+ tachyzoites in HFF cells, 2 days. As to the method:
(§1) • a) Anti-malarial screening: Plasmodium falciparum (3D7; Malaria Research and Reference Reagent Resource Center ID NO: MRA-102) is cultured in the laboratory as per standard protocols [Moll et. al. 2008]. Briefly, P. falciparum is cultured using 2% hematocrit washed RBCs, separated from freshly collected human blood, in RPMI media containing glutamine, sodium bicarbonate and antibiotics. Parasites are routinely synchronized using 5% sorbitol treatment. Anti-malarial screens are carried out in two stages: 1) a primary screen at a fixed concentration of 10 μM to find out % inhibition of growth; and 2) a dose assay for finding out the IC50 of hits identified from the primary screen. In both assays the following steps are followed. 200 μL's of the diluted parasite culture (2% parasitemia and 2% hematocrit; at late ring stage), is added to each well in a 96 well plate pre-seeded with the compound of interest at the required concentration of 10 μM. The master stocks and dilutions of the compounds are prepared in cell culture grade DMSO. NOTE: DMSO only treatment control is done and the results are used for normalizing the data obtained from compound treatment. All compounds are plated in triplicates. Each 96 well plate also includes negative control (compound untreated culture) and positive control (standard anti-malarial treated culture). Standard anti-malarials used are chloroquine, artemisinine and atovaquone, each at 1 μM concentration. After plating, the culture is incubated in standard growth condition for 60 hours, after which the cultures are processed for testing the effect of compounds on parasite growth using SybrGreen staining and fluorescence measurements at 520 nm emission following excitation at 498 nm. Since only the parasites have DNA (as RBCs are devoid of nucleus), the SybrGreen signal is a direct indictor of parasite density in respective samples. Results are used to quantifying relative parasite growth (or conversely % inhibition of growth) in untreated, standard anti-malarial treated and test molecules treated P. falciparum cultures. Compounds showing greater than 80% reduction in parasitemia are selected from this primary screening for carrying out dose response analysis using the respective test molecules from 10 μM to 1 nM dilution series. Data from this experiment is used for the calculation of IC50 values for the respective test molecules. • b) Anti-toxoplasma screening: For screening bioactivity of test molecules against T. gondii, a transgenic line of the parasite expressing the luciferase gene is used. The parental parasite used to generate the TgLuc+ strain is a Type I (RH) virulent strain (ATCC reference 50174D), which can also be used for in vivo studies in mice, if needed. The tachyzoite stage of the parasites are routinely cultured in the laboratory using standard protocols [Roos et al., 1994. In brief, a confluent monolayer of Human Foreskin Fibroblast (HFF; ATCC reference SCRS-1041) cells in culture are used as the host cells for infection with tachyzoite stage T. gondii. The culture media used to grow parasites is standard complete DMEM (Gibco BRL, USA) containing glucose (5.5 mM), glutamine (2 mM), Hepes (25 mM) and 1% dialyzed bovine fetal calf serum (Gibco BRL, USA). For bioactivity assays, the HFF cells are grown in 96 well plates and each well is infected with 1×10^4 TgLuc+ parasitesin the presence of 10 μM of test molecules (in primary screens) in a total volume of 200 μL. After 2 days of incubation and growth in a 37° C. incubator maintaining 5% CO2, the 96 well plates are processed for luminescence measurements using the reagents in the luciferase assay kit (Promega, USA). […]

Test [1] relates to Plasmodium falciparum (3D7). Description: Anti-malarial screening, P. falciparum 3D7 growth in human RBC culture, SybrGreen fluorescence. The test is classed as cell-based. Conditions: for inhibition at 10 µM: primary screen, 3D7, 60 hours; for pEC50: dose response, 10 μM to 1 nM dilution series, 3D7. As to the method:
as §1

pEC50: −log10 of the molar value.

Consider 11 compounds from US10550135B2, “Silicon incorporated quinolines with anti-malarial and anti-toxoplasmosis activity” (Council of Scientific & Industrial Research, priority 2016, dated 2020).

Usually inhibition stands for the relative decrease from the control value, in per cent. Usually pEC50 stands for the EC50 on a negative log10 scale, so that one unit is a factor of ten. Turning to `C[Si]1(C)CCN(CCNC(=O)c2cc(-c3ccc(CN4CCOCC4)cc3)nc3ccc(F)cc23)CC1` [NDS 100951, N-(2-(4,4-dimethyl-1,4-azasilinan-1-yl)ethyl)-6-fluoro-2-(4-(morpholinomethyl)phenyl)quinoline-4-carboxamide], the inhibition at 10 µM in the test on T. gondii was 21.8%; in test [1], 93.6%. Moreover, the pEC50 in test [1] is 7.30.

For `C[Si]1(C)CCN(Cc2ccc(-c3cc(C(=O)NCCN4CCCC4)c4cc(F)ccc4n3)cc2)CC1` [NDS 100950, 2-(4-((4,4-dimethyl-1,4-azasilinan-1-yl)methyl)phenyl)-6-fluoro-N-(2-(pyrrolidin-1-yl)ethyl)quinoline-4-carboxamide], the inhibition at 10 µM in the test on T. gondii was determined as 95.2%; in test [1], 95.7%. Also, the pEC50 in the test on T. gondii (HFF, dose response, 10 μM to 1 nM dilution series) is 5.40; in test [1], 7.22.

For `C[Si]1(C)CCN(Cc2ccc(-c3cc(C(=O)NCCN4CCOCC4)c4cc(F)ccc4n3)cc2)CC1` [NDS 101008, 2-(4-((4,4-dimethyl-1,4-azasilinan-1-yl)methyl)phenyl)-6-fluoro-N-(2-morpholinoethyl)quinoline-4-carboxamide], the inhibition at 10 µM in the test with T. gondii is 3%. For the same compound, in test [1], the inhibition at 10 µM is 95.9% and the pEC50 is 5.90.

Take `CN1CCN(CCNC(=O)c2cc(-c3ccc(CN4CC[Si](C)(C)CC4)cc3)nc3ccc(F)cc23)CC1` [NDS 101075, 2-(4-((4,4-dimethyl-1,4-azasilinan-1-yl)methyl)phenyl)-6-fluoro-N-(2-(4-methylpiperazin-1-yl)ethyl)quinoline-4-carboxamide]: in test [1], the inhibition at 10 µM was found to be 95.2% and the pEC50 is 6.39.

In the case of `C[Si]1(C)CCN(Cc2ccc(-c3cc(C(=O)NCCO)c4cc(F)ccc4n3)cc2)CC1` [NDS 101076, 2-(4-((4,4-dimethyl-1,4-azasilinan-1-yl)methyl)phenyl)-6-fluoro-N-(2-hydroxyethyl)quinoline-4-carboxamide], in test [1], the inhibition at 10 µM worked out at 81.4% and the negative logarithm of the EC50 (pEC50) was 5.21.

As for `C[Si]1(C)CCN(Cc2ccc(-c3cc(C(=O)NCCN4CCCCC4)c4cc(F)ccc4n3)cc2)CC1` [NDS 101074, 2-(4-((4,4-dimethyl-1,4-azasilinan-1-yl)methyl)phenyl)-6-fluoro-N-(2-(piperidin-1-yl)ethyl)quinoline-4-carboxamide], in test [1], the inhibition at 10 µM was determined as 78.8% and the pEC50 is 6.95.

Regarding `C[Si](C)(C)CCNC(=O)c1cc(-c2ccc(CN3CCOCC3)cc2)nc2ccc(F)cc12` [NDS 101037, 6-fluoro-2-(4-(morpholinomethyl)phenyl)-N-(2-(trimethylsilyl)ethyl)quinoline-4-carboxamide], the inhibition at 10 µM came to 45% in the test on T. gondii and 9.16% in test [1].

With `C[Si]1(C)CCN(C(=O)c2cc(-c3ccc(CN4CCOCC4)cc3)nc3ccc(F)cc23)CC1` [NDS 101006, (4,4-dimethyl-1,4-azasilinan-1-yl)(6-fluoro-2-(4-(morpholinomethyl)phenyl)quinolin-4-yl)methanone], the figures for the inhibition at 10 µM (with T. gondii; in test [1]) were 0% and 1.87%, respectively.

Regarding `C[Si]1(C)CCN(Cc2ccc(-c3cc(C(=O)Nc4ccccn4)c4cc(F)ccc4n3)cc2)CC1` [NDS 101009, 2-(4-((4,4-dimethyl-1,4-azasilinan-1-yl)methyl)phenyl)-6-fluoro-N-(pyridin-2-yl)quinoline-4-carboxamide], the inhibition at 10 µM with T. gondii came out at 31%; in test [1] it was 97.1%. For the same compound, the pEC50 in test [1] was 6.09.

As for `C[Si]1(C)CCN(Cc2ccc(-c3cc(C(=O)NCCN4CCSCC4)c4cc(F)ccc4n3)cc2)CC1` [NDS 101077, 2-(4-((4,4-dimethyl-1,4-azasilinan-1-yl)methyl)phenyl)-6-fluoro-N-(2-thiomorpholinoethyl)quinoline-4-carboxamide], in test [1], the inhibition at 10 µM was 95.5% and the pEC50 was 6.02.

Regarding `C[Si]1(C)CCN(Cc2ccc(-c3cc(C(=O)N4CCOCC4)c4cc(F)ccc4n3)cc2)CC1` [NDS 101007, (2-(4-((4,4-dimethyl-1,4-azasilinan-1-yl)methyl)phenyl)-6-fluoroquinolin-4-yl)(morpholino)methanone], the inhibition at 10 µM in the test on T. gondii came to 3%; in test [1], 2.79%.
